Test results as given in patent US11066412B2, “Substituted pyrrolo[2,1-a]phthalazines and benzo[g]pyrrolo[2,1-a]phthalazines for the treatment of cancer” (Academia Sinica, priority 2017, dated 2021).

Assays:
[1] = test system: EA.hy926 cells; assay: Tube-Formation Assay; assay type: cell-based; settings: 24 hr pre-treatment, 48-hr incubation on matrigel; FIG. 4
Protocol: Angiogenesis is the process of generating new blood vessels derived as extensions from the existing vasculature. Performance of vascular behavior or monitoring tube formation can determine whether the compound is capable of interrupting angiogenesis. In this example, whether the compound of formula (I) interrupted angiogenesis was investigated using Tube-Formation Assay.
Briefly, EA.hy926 cells were treated with various concentrations of BO-2590 for 24 hr. After that, cells (5×10^5 cells/well) were suspended in 100 μl medium containing 1% FCS and subsequently seeded onto 96-well plate pre-coated with matrigel 1 h at 37° C. After a 48-hr incubation, tube-formation ability was examined under a phase microscope.

[2] = test system: γ-H2AX; assay: immunohistochemical staining of tumor xenograft sections, DNA damage marker; assay type: in vivo, nude mice; settings: FIG. 16, panel B
Protocol: Tumor xenograft tissue sections on the slides were deparaffinized in xylene twice for 7 min each time. The slides were then rehydrated in graded ethanol, serially from 100% to 70%, followed by rinsing in dH2O. Antigen retrieval was performed using citrate buffer (0.01M, pH 6.0) with incubation in a cooker for 50 mins followed by ambient temperature cooling for 30 min. and then dH2O rinsing. Later slides were subjected to immunohistochemical (IHC) staining with primary antibodies (anti-rabbit CD31 antibody and anti-mouse γ-H2AX antibody) obtained from Abeam® following the manufacturer's instructions (Novolink Polymer Detection system, Leica Biosystems, Wetzlar, Germany).^11 After IHC processing, the slides were scanned digitally using the Panoramic 250 Flash II whole slide scanner and analyzed by 3[…] Panoramic viewer software (3[…] Ltd., Budapest, Hungary).
As BO-2590L is a DNA damaging agent, we thus investigated the effect of BO-2590L on the level of a DNA damage marker, γ-H2AX, via the use of immunohistochemical staining.

[3] = test system: H460 cell lines; assay: Annexin V staining assay; assay type: cell-based, human; settings: 0.5, 1 and 2 μM, 48 hr; FIG. 7
Protocol: In this example, Annexin V staining assay was used to assess BO-2590 induced apoptotic cell death in H460 cell lines. Briefly, H460 cells were treated with BO-2590 at the concentrations of 0.5, 1 and 2 μM for 48 hr and then stained with Annexin V-FITC and propidium iodide. The stained cells were analyzed by flow cytometry.

[4] = test system: H211 cells; assay: combination with cisplatin, proliferation by PrestoBlue assay; assay type: cell-based; settings: co-administration of BO-2768 and cisplatin, ratio 1:2, 1:4 and 1:8; FIG. 9
Protocol: In this example, whether synergistic effect on the suppression of cell proliferation exists between BO-2768 and cisplatin was investigated. To this purpose, H211 cells were treated with BO-2768 or cisplatin, alone or in combination, and proliferation rate of H211 cells was analyzed by PrestoBlue assay. Results are depicted in FIG. 9.

[5] = test system: SCLC H211 xenografts; assay: tumor growth in xenograft-bearing nude mice, combination with cisplatin; assay type: in vivo; settings: co-administration of BO-2768 (20 mg/kg, 5 days + 1 day rest, two cycles) and cisplatin (2 or 4 mg/kg every 4 days ×3); FIG. 14, panel A
Protocol: Athymic nude mice bearing the nu/nu gene were obtained from the National Laboratory Animal Center (Taipei, Taiwan). Male nude mice (6 weeks or older weighing 20-24 g or more) were used for all human tumor xenografts. The tested compounds were intravenously administered through tail vein. Tumor volume was determined by measuring the length x width x height (or width) with calipers. The vehicle used for the tested compounds was normal saline (0.9% NaCl isotonic solution). For tumor-bearing nude mice during the course of the experiment, the % body weight changes refer to: (the total weight on reading day/the total weight on day treatment started)×100.
In this example, the synergistic effect of BO-2768 and cisplatin on the suppression of tumor size and the body weight changes of the test subjects were investigated. To this purpose, an aliquot of H211 cells (5×10^6, 50 μl ) were implanted into nude mice subcutaneously. Then, the test animals were treated with BO-2768 or cisplatin, alone or in combination. BI-2768 (dissolved in 20% Kolliphor® HS 15, 10% Tween 80, 10% PEG400, […], and 40% distilled water) was administered at the dose of 20 mg/kg in […] for 5 consecutive days, then rest for one day; and the cycle was repeated once (i.e., a total of two cycles). Cisplatin was given at the dose of 2 or 4 mg/kg once every 4 days, for 3 times. Results are depicted in FIG. 14.

[6] = test system: H526 cell lines; assay: Annexin V staining assay; assay type: cell-based; settings: 0.01-0.08 μM, 72-h treatment; FIG. 8
Protocol: In this example, the effect of BO-2768 was assessed in accordance with procedures of Example 4.7 except apoptotic cell death was determined in H526 cell lines. Briefly, H526 cells were treated with BO-2768 at the concentrations of 0.01, 0.02, 0.04 and 0.08 μM or with cisplatin at the concentrations of 2, 4, 8 and 16 μM for 24, 48 or 72 hrs and then stained with Annexin V-FITC and propidium iodide. The stained cells were analyzed by flow cytometry.

[7] = test system: H526 cells; assay: single cell electrophoresis (comet) assay; assay type: cell-based; settings: FIG. 2
Source text: The data is the average of 3 independent experiments.
To this purpose, cells were encapsulating in a low-melting-point agarose suspension on a microscope slide, then were lysed in neutral or alkaline (pH>13) condition, and electrophoresis of the suspended lysed cells. The term “comet” refers to the pattern of DNA migration through the electrophoresis gel, which often resembles a comet, and the intensity of the comet tail relative to the head reflects the number of DNA breaks.

[8] = test system: H1417; assay: in vitro cytotoxicity to SCLC cells; assay type: cell-based, human; settings: Table 3
Method in brief: (§1)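 SCLC lines exposed to compounds for 72 h, then viability measured by PrestoBlue (1–2 h at 37° C, absorbance 570/600 nm).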

[9] = test system: H82; assay: in vitro cytotoxicity to SCLC cells; assay type: cell-based, human; settings: Table 3
Method in brief: as §1

[10] = test system: H146; assay: in vitro cytotoxicity to SCLC cells; assay type: cell-based, human; settings: Table 3
Method in brief: as §1

[11] = test system: H211; assay: in vitro cytotoxicity to SCLC cells; assay type: cell-based, human; settings: Table 3
Method in brief: as §1

Structure (SMILES) | tube formation [1] | γ-H2AX signals, quantitative analysis [2] | proportion of Annexin V+ cells [3] | numbers of proliferated H211 cells, combination effect [4] | tumor size, combination effect [5] | proportion of Annexin V+ cells [6] | DNA damage (comet tail) [7] | IC50 [8] | IC50 [9] | IC50 [10] | IC50 [11]
Cc1c(CO)c(CO)c2c3ccccc3c(N3CCC(N4CCCCC4)CC3)nn12 [BO-2590, (6-([1,4′-Bipiperidin]-1′-yl)-3-methylpyrrolo[2,1-α]phthalazine-1,2-diyl)dimethanol] | markedly and dose-dependently abolished tube formation | time-dependently increased in γ-H2AX signals | significantly increased the proportion of Annexin V^+ cells in a dose-dependent manner |  |  |  |  |  |  |  | 
Cc1c(CO)c(CO)c2c3cc4ccccc4cc3c(N(C)C)nn12 [BO-2768, (6-(Dimethylamino)-3-methylbenzo[g]pyrrolo[2,1-α]phthalazine-1,2-diyl)dimethanol] |  |  |  | synergistic reduction in the numbers of proliferated H211 cells | synergistic reduction in the tumor size | significantly increased the proportion of Annexin V^+ cells in a dose-dependent manner | capable of inducing DNA breaks in a dose dependent manner | 420 ± 190 nM | 310 ± 140 nM | 1170 ± 290 nM | 170 ± 70 nM
